# “Also recorded” adds a separate entry of the source. Positions of bridges follow the written chain, without caps; N, C: chain ends. Residues, ends and D or L forms follow the SMILES beside them.
# Experiments:
# PfAMA1 from strain CAMP = assay: SPR binding to immobilized recombinant PfAMA1 CAMP; parameters: species or system P. falciparum (strain CAMP); details: SPR Biacore 2000, AMA1 immobilized on CM5, 25°C, PBS and 0.005% Tween 20, steady-state model (Req extrapolated), mean ± SD, at least three independent experiments, read-out: Apparent equilibrium dissociation constant KD
# Excerpt: (§1) (ii) P. pastoris expression: Synthetic genes were optimized for PfAMA1 coding of residues 97–442, from strains 3D7 (Genbank accession number U33274), CAMP (accession number M34552) and HB3 (accession number U33277). Potential N-glycosylation sites were mutated and genes were cloned EcoRI-KpnI in the pPicZalpha A vector (Invitrogen), resulting in an 11-residues sequence extension followed by myc-epitope and hexa-His tags at the C-terminus), expressed in P. pastoris, and purified as described. Yield after purification was approximately 20 mg per L of culture. PfAMA1 FVO (residues 25–545, no tags, accession number AJ277646) was produced as described before. The DiCo3 protein was modified compared to the published protein [23]; it includes the PfAMA1 FVO prodomain (amino acids 25–96) and one additional mutation to minimize proteolytic cleavage Lys376–>Arg (B. Faber, unpublished results). The PfAMA1 3D7mut (Ile225–>Asn, residues 25–545, no tags) mutant was generated by site-directed mutagenesis (Genscript) and produced in P. pastoris in a similar fashion to the native protein [29].
# (§2) A 39-residue peptide corresponding to residues 2021 to 2059 of PfRON2 (PfRON2sp1) was synthesized by Kinexus (Vancouver, Canada) and disulfide cyclized. […]
# P. falciparum 3D7 = assay: Red blood cell invasion assay, P. falciparum 3D7; type: cell-based, P. falciparum (strain 3D7); details: peptides 0.2 to 20 µM, parasitemia of IRBC 16 hours post-invasion, N = 3
# Description: (§3) The P. falciparum cell cultures and the invasion assays were performed as described previously. Briefly, highly synchronized P. falciparum 3D7 and HB3 schizonts (1.5% hematocrit, 1.5% parasitemia) were incubated with R1 or PfRON2sp1 peptides. Blood smears were collected 16 hours post-invasion and used for ring-stage parasites counting. The results presented are representative of three independent experiments, each performed in triplicate.
# P. falciparum 3D7 or HB3 = assay: Red blood cell invasion assay, cross-strain (3D7 and HB3); type: cell-based, P. falciparum (strains 3D7 and HB3); details: for Cross-strain reactivity of invasion inhibition: 3D7 or HB3, peptides 0.2 to 20 µM, 16 hours post-invasion, N = 3; for Inhibition of erythrocyte invasion: P. falciparum merozoites, in words
# Description: as §3
# [1] = system: PfAMA1 from 3D7, CAMP, FVO and HB3; assay: SPR binding compared across PfAMA1 strains; parameters: species or system P. falciparum
# Excerpt: as §1
# A 39-residue peptide corresponding to residues 2021 to 2059 of PfRON2 (PfRON2sp1) was synthesized by Kinexus (Vancouver, Canada) and disulfide cyclized. Lyophilized PfRON2sp1 was solubilized in 100% DMSO and subsequently diluted in HBS (20 mM HEPES pH 7.5, 150 mM NaCl) for use in co-crystallization and functional studies. Peptides PfRON2sp2 (residues 2027 to 2054) and R1 were synthesized by PolyPeptide (Strasbourg, France) and solubilized in 3.5% DMSO for subsequent use.
# SPR measurements were made with a Biacore 2000 instrument (Biacore AB). AMA1 proteins diluted in 10 mM sodium acetate pH 4.5 for 3D7, CAMP, HB3 and FVO strains, or pH 4.0 for 3D7mut and Dico3, were covalently immobilized by an amine-coupling procedure on CM5 sensor chips (GE Healthcare). The reference flow cell was prepared by the same procedure in absence of protein. […]
# PfAMA1 from strain 3D7 = PfAMA1 from strain 3D7 (Plasmodium falciparum, UniProt Q7KQK5); assay: SPR binding to immobilized recombinant PfAMA1 3D7; parameters: species or system P. falciparum (strain 3D7); details: ratio PfRON2sp1 vs PfRON2sp2, SPR
# Excerpt: as §1, §2
# PfAMA1 3D7 = PfAMA1 3D7 (Plasmodium falciparum, UniProt Q7KQK5); assay: Isothermal titration calorimetry of R1 with PfAMA1 3D7; type: binding, P. falciparum (strain 3D7); details: ITC200, PfAMA1 3D7 (P. pastoris) 0.6 µM, R1 55 µM, PBS, 25°C, 1∶1 interaction model
# Description: ITC measurements were made using a ITC200 calorimeter (MicroCal). PfAMA1 3D7 (P. pastoris) and peptide R1 were diluted in PBS to final concentrations of 0.6 µM and 55 µM, respectively. PfAMA1 3D7 (initial volume 200 µL) was titrated at 25°C by consecutive injections of the peptide R1 (2 µL aliquots at 3 min intervals). Raw data were normalized and corrected for the heat of dilution of R1 in PBS. Binding stoichiometry was determined by fitting the final data to a 1∶1 interaction model using the Origin7 software (OriginLab).
# [2] = biological target: PfAMA1 CAMP (residues 97-442), P. pastoris expression (Plasmodium falciparum (strain CAMP)) (UniProt P50489); assay: SPR; Biacore 2000; PfAMA1 (3D7, CAMP, HB3, FVO) amine-coupled on CM5 at pH 4.5; PfRON2sp peptides injected; 25°C, PBS with 0.005% Tween 20, 5 µL/min; apparent KD from a steady-state model, Req extrapolated
# [3] = biological target: PfAMA1 3D7 (residues 97-442), P. pastoris expression (Plasmodium falciparum (strain 3D7)) (UniProt Q7KQK5); assay: as above
# [4] = biological target: PfAMA1 FVO (residues 25-545, no tags) (Plasmodium falciparum (strain FVO)); assay: as above
# [5] = biological target: PfAMA1 HB3 (residues 97-442), P. pastoris expression (Plasmodium falciparum (strain HB3)); assay: as above
# crystal structure = biological target: the molecule itself; assay: crystal structure
molecule,measurement,setting,value
CC[C@H](C)[C@H](NC(=O)[C@H](CC(=O)O)NC(=O)[C@H](CCCCN)NC(=O)[C@H](C)NC(=O)[C@H](CCC(N)=O)NC(=O)[C@H](CCC(N)=O)NC(=O)[C@@H](NC(=O)[C@@H](NC(=O)[C@@H](N)CC(=O)O)[C@@H](C)CC)[C@@H](C)O)C(=O)NCC(=O)N[C@@H](C)C(=O)NCC(=O)N1CCC[C@H]1C(=O)N[C@H](C(=O)N[C@@H](C)C(=O)N[C@@H](CO)C(=O)N[C@H]1CSSC[C@@H](C(=O)N[C@@H](CC(C)C)C(=O)N[C@@H](CC(N)=O)C(=O)N[C@@H](CO)C(=O)N[C@H](C(=O)N[C@H](C(=O)N[C@@H](CC(N)=O)C(=O)N[C@H](C(=O)N[C@@H](C)C(=O)N[C@@H](CC(C)C)C(=O)N[C@@H](CO)C(=O)O)[C@@H](C)O)C(C)C)C(C)C)NC(=O)[C@H]([C@@H](C)CC)NC(=O)[C@H](CCC(N)=O)NC(=O)[C@H](CCC(N)=O)NC(=O)[C@@H]2CCCN2C(=O)[C@@H]2CCCN2C(=O)[C@H](CO)NC(=O)[C@H](CCSC)NC(=O)[C@H](CCCNC(=N)N)NC(=O)[C@H]([C@@H](C)O)NC(=O)[C@H]([C@@H](C)O)NC(=O)[C@H](Cc2ccccc2)NC1=O)C(C)C [PfRON2sp1],Kd,PfAMA1 from strain CAMP,14.6 ± 3.8 nM
same,Inhibition of red blood cell invasion relative to R1 peptide,P. falciparum 3D7,higher capacity to inhibit red cell invasion; also recorded: higher inhibitory efficiency
same,Cross-strain reactivity of invasion inhibition,P. falciparum 3D7 or HB3,cross-strain inhibition of invasion; also recorded: cross-strain reactivity; also recorded: not strain specific
same,Cross-strain reactivity of invasion inhibition,P. falciparum 3D7 or HB3; listed as PfRON2 peptide,strong inhibitory potency is not affected by AMA1 polymorphisms
same,Inhibition of erythrocyte invasion,P. falciparum 3D7 or HB3,very efficient at inhibiting invasion
same,Inhibition of erythrocyte invasion,P. falciparum 3D7 or HB3; listed as PfRON2 peptide,inhibits erythrocyte invasion
same,Affinity for PfAMA1 relative to R1 peptide,"[1]; all the PfAMA1 proteins tested, SPR, compared with R1",higher affinity than for R1 peptide
same,Affinity to PfAMA1,[1]; in words,very high affinity to PfAMA1
same,Affinity of PfAMA1 from 3D7 for PfRON2sp1 higher than for PfRON2sp2,PfAMA1 from strain 3D7,25 fold
CC[C@H](C)[C@H](NC(=O)[C@H](CC(=O)O)NC(=O)[C@@H](N)CCCCN)C(=O)NCC(=O)N[C@@H](C)C(=O)NCC(=O)N1CCC[C@H]1C(=O)N[C@H](C(=O)N[C@@H](C)C(=O)N[C@@H](CO)C(=O)N[C@H]1CSSC[C@@H](C(=O)N[C@@H](CC(C)C)C(=O)N[C@@H](CC(N)=O)C(=O)N[C@@H](CO)C(=O)N[C@H](C(=O)N[C@H](C(=O)N[C@@H](CC(N)=O)C(=O)O)C(C)C)C(C)C)NC(=O)[C@H]([C@@H](C)CC)NC(=O)[C@H](CCC(N)=O)NC(=O)[C@H](CCC(N)=O)NC(=O)[C@@H]2CCCN2C(=O)[C@@H]2CCCN2C(=O)[C@H](CO)NC(=O)[C@H](CCSC)NC(=O)[C@H](CCCNC(=N)N)NC(=O)[C@H]([C@@H](C)O)NC(=O)[C@H]([C@@H](C)O)NC(=O)[C@H](Cc2ccccc2)NC1=O)C(C)C [PfRON2sp2] (H-KDIGAGPVASCFTTRMSPPQQICLNSVVN-OH; disulfide 11-23; N-terminus and C-terminus assumed),Kd,PfAMA1 from strain CAMP,165 ± 42 nM
same,Difference in affinity of PfAMA1 3D7 and CAMP homologs,"[1]; 3D7 vs CAMP, SPR",no significant difference in the affinity
CC[C@H](C)[C@H](NC(=O)[C@H](Cc1cnc[nH]1)NC(=O)[C@H](CCSC)NC(=O)[C@H](CCCNC(=N)N)NC(=O)[C@H](CO)NC(=O)CNC(=O)[C@H](Cc1ccccc1)NC(=O)[C@H](CCCCN)NC(=O)[C@H](CO)NC(=O)[C@H](Cc1ccccc1)NC(=O)[C@H](CC(C)C)NC(=O)[C@@H]1CCCN1C(=O)[C@H](CC(C)C)NC(=O)[C@H](Cc1ccccc1)NC(=O)[C@H](CCC(=O)O)NC(=O)[C@H](C)NC(=O)[C@H](Cc1ccccc1)NC(=O)[C@@H](N)C(C)C)C(=O)N[C@@H](CC(C)C)C(=O)N[C@@H](CCCCN)C(=O)O [R1] (H-VFAEFLPLFSKFGSRMHILK-OH),Kd,PfAMA1 3D7,145 nM
PfRON2sp1 (PfRON2 residues 2021-2059) (peptide),Kd,[2],14.6 nM
same,Kd,[3],20.3 nM
same,Kd,[4],9.2 nM
same,Kd,[5],18.3 nM
PfRON2sp2 (PfRON2 residues 2027-2055) (peptide),Kd,[2],165 nM
same,Kd,[3],520 nM
same,Kd,[4],80 nM
same,Kd,[5],680 nM
VFAEFLPLFSKFGSRMHILK (source: synthetic peptide (PolyPeptide)) [invasion-inhibitory peptide R1],binding result,crystal structure,binds

# Source: publication PMC3380929 (PLoS Pathogens, 2012)
